Reference: patent publication US6344487B1, “Treatment of insomnia” (priority 2000, dated 2002)
Structures can show the parent of a compound that is named as a salt.

Tests used:
Type in all cases: in vivo
Settings in all cases: single patient
[1] = system: insomnia, possibly due to a desynchronization of circadian rhythms ("jet-lag"); assay: Treatment of business traveler with insomnia possibly due to desynchronization of circadian rhythms (jet-lag), follow up
Method: (§1) Administration of the compounds should take place within about one hour before bedtime. Again, the onset of the sedative effect will vary with the individual and the dosage prescribed.
The patient, a business traveler, suffers from insomnia, possibly due to a desynchronization of circadian rhythms (“jet-lag”). At the time of consultation, they have normal affect with no depression, anxiety or substance overuse. They are prescribed mirtazapine 10 mg hs.
The patient, a business traveler, suffers from insomnia, possibly due to a desynchronization of circadian rhythms (“jet-lag”). At the time of consultation, they have normal affect with no depression, anxiety or substance overuse. They are prescribed mirtazapine 7.5 mg hs.
The patient, a business traveler, suffers from insomnia, possibly due to a desynchronization of circadian rhythms (“jet-lag”). At the time of consultation, they have normal affect with no depression, anxiety or substance overuse. They are prescribed mirtazapine 5 mg hs.
The patient, a business traveler, suffers from insomnia, possibly due to a desynchronization of circadian rhythms (“jet-lag”). At the time of consultation, they have normal affect with no depression, anxiety or substance overuse. They are prescribed mirtazapine 2 mg hs.
The patient, a business traveler, suffers from insomnia, possibly due to a desynchronization of circadian rhythms (“jet-lag”). At the time of consultation, they have normal affect with no depression, anxiety or substance overuse. They are prescribed nortriptyline 10 mg hs.
The patient, a business traveler, suffers from insomnia, possibly due to a desynchronization of circadian rhythms (“jet-lag”). At the time of consultation, they have normal affect with no depression, anxiety or substance overuse. They are prescribed nortriptyline 7.5 mg hs.
The patient, a business traveler, suffers from insomnia, possibly due to a desynchronization of circadian rhythms (“jet-lag”). At the time of consultation, they have normal affect with no depression, anxiety or substance overuse. They are prescribed nortriptyline 5 mg hs.
The patient, a business traveler, suffers from insomnia, possibly due to a desynchronization of circadian rhythms (“jet-lag”). At the time of consultation, they have normal affect with no depression, anxiety or substance overuse. They are prescribed nortriptyline 2 mg hs.

[2] = system: onset insomnia (chronic); assay: Treatment of patient with onset insomnia (chronic), follow up
Method: as §1
The patient suffers from onset insomnia (chronic). At the time of consultation, they have normal affect with no depression, anxiety or substance overuse. They are prescribed mirtazapine 10 mg hs.
The patient suffers from onset insomnia (chronic). At the time of consultation, they have normal affect with no depression, anxiety or substance overuse. They are prescribed mirtazapine 7.5 mg hs.
The patient suffers from onset insomnia (chronic). At the time of consultation, they have normal affect with no depression, anxiety or substance overuse. They are prescribed mitazapine 5 mg hs.
The patient suffers from onset insomnia (chronic). At the time of consultation, they have normal affect with no depression, anxiety or substance overuse. They are prescribed mirtazapine 2 mg hs.
The patient suffers from onset insomnia (chronic). At the time of consultation, they have normal affect with no depression, anxiety or substance overuse. They are prescribed nortriptyline 10 mg hs.
The patient suffers from onset insomnia (chronic). At the time of consultation, they have normal affect with no depression, anxiety or substance overuse. They are prescribed nortriptyline 7.5 mg hs.
The patient suffers from onset insomnia (chronic). At the time of consultation, they have normal affect with no depression, anxiety or substance overuse. They are prescribed nortriptyline 5 mg hs.
The patient suffers from onset insomnia (chronic). At the time of consultation, they have normal affect with no depression, anxiety or substance overuse. They are prescribed nortriptyline 2 mg hs.

[3] = system: maintenance insomnia (chronic); assay: Treatment of patient with maintenance insomnia (chronic), follow up
Method: as §1
The patient suffers from maintenance insomnia (chronic). At the time of consultation, they have normal affect with no depression, anxiety or substance overuse. They are prescribed mirtazapine 10 mg hs.
The patient suffers from maintenance insomnia (chronic). At the time of consultation, they have normal affect with no depression, anxiety or substance overuse. They are prescribed mirtazapine 7.5 mg hs.
The patient suffers from maintenance insomnia (chronic). At the time of consultation, they have normal affect with no depression, anxiety or substance overuse. They are prescribed mirtazapine 5 mg hs.
The patient suffers from maintenance insomnia (chronic). At the time of consultation, they have normal affect with no depression, anxiety or substance overuse. They are prescribed mirtazapine 2 mg hs.
The patient suffers from maintenance insomnia (chronic). At the time of consultation, they have normal affect with no depression, anxiety or substance overuse. They are prescribed nortriptyline 10 mg hs.
The patient suffers from maintenance insomnia (chronic). At the time of consultation, they have normal affect with no depression, anxiety or substance overuse. They are prescribed nortriptyline 7.5 mg hs.
The patient suffers from maintenance insomnia (chronic). At the time of consultation, they have normal affect with no depression, anxiety or substance overuse. They are prescribed nortriptyline 5 mg hs.
The patient suffers from maintenance insomnia (chronic). At the time of consultation, they have normal affect with no depression, anxiety or substance overuse. They are prescribed nortriptyline 2 mg hs.

[4] = system: maintenance insomnia (non-chronic); assay: Treatment of patient with maintenance insomnia (non-chronic), follow up
Method: as §1
The patient suffers from maintenance insomnia (non-chronic) At the time of consultation, they have normal affect with no depression, anxiety or substance overuse. They are prescribed mirtazapine 10 mg hs.
The patient suffers from maintenance insomnia (non-chronic) At the time of consultation, they have normal affect with no depression, anxiety or substance overuse. They are prescribed mirtazapine 7.5 mg hs.
The patient suffers from maintenance insomnia (non-chronic) At the time of consultation, they have normal affect with no depression, anxiety or substance overuse. They are prescribed mirtazapine 5 mg hs.
The patient suffers from maintenance insomnia (non-chronic) At the time of consultation, they have normal affect with no depression, anxiety or substance overuse. They are prescribed mirtazapine 2 mg hs.
The patient suffers from maintenance insomnia (non-chronic). At the time of consultation, they have normal affect with no depression, anxiety or substance overuse. They are prescribed nortriptyline 10 mg hs.
The patient suffers from maintenance insomnia (non-chronic). At the time of consultation, they have normal affect with no depression, anxiety or substance overuse. They are prescribed nortriptyline 7.5 mg hs.
The patient suffers from maintenance insomnia (non-chronic) At the time of consultation, they have normal affect with no depression, anxiety or substance overuse. They are prescribed nortriptyline 5 mg hs.
The patient suffers from maintenance insomnia (non-chronic) At the time of consultation, they have normal affect with no depression, anxiety or substance overuse. They are prescribed nortriptyline 2 mg hs.

[5] = system: onset insomnia (non-chronic); assay: Treatment of patient with onset insomnia (non-chronic), follow up
Method: as §1
The patient suffers from onset insomnia (non-chronic). At the time of consultation, they have normal affect with no depression, anxiety or substance overuse. They are prescribed mirtazapine 10 mg hs.
The patient suffers from onset insomnia (non-chronic). At the time of consultation, they have normal affect with no depression, anxiety or substance overuse. They are prescribed mirtazapine 7.5 mg hs.
The patient suffers from onset insomnia (non-chronic). At the time of consultation, they have normal affect with no depression, anxiety or substance overuse. They are prescribed mitazapine 5 mg hs.
The patient suffers from onset insomnia (non-chronic). At the time of consultation, they have normal affect with no depression, anxiety or substance overuse. They are prescribed mirtazapine 2 mg hs.
The patient suffers from onset insomnia (non-chronic). At the time of consultation, they have normal affect with no depression, anxiety or substance overuse. They are prescribed nortriptyline 10 mg hs.
The patient suffers from onset insomnia (non-chronic). At the time of consultation, they have normal affect with no depression, anxiety or substance overuse. They are prescribed nortriptyline 7.5 mg hs.
The patient suffers from onset insomnia (non-chronic). At the time of consultation, they have normal affect with no depression, anxiety or substance overuse. They are prescribed nortriptyline 5 mg hs.
The patient suffers from onset insomnia (non-chronic). At the time of consultation, they have normal affect with no depression, anxiety or substance overuse. They are prescribed nortriptyline 2 mg hs.

| Compound | relief of insomnia at follow up ([1]; 2 mg hs) | relief of insomnia at follow up ([1]; 5 mg hs) | relief of insomnia at follow up ([1]; 7.5 mg hs) | relief of insomnia at follow up ([1]; 10 mg hs) | relief of onset insomnia at follow up ([2]; 2 mg hs) | relief of onset insomnia at follow up ([2]; 5 mg hs) | relief of onset insomnia at follow up ([2]; 7.5 mg hs) | relief of onset insomnia at follow up ([2]; 10 mg hs) | relief of insomnia at follow up ([3]; 2 mg hs) | relief of insomnia at follow up ([3]; 5 mg hs) | relief of insomnia at follow up ([3]; 7.5 mg hs) | relief of insomnia at follow up ([3]; 10 mg hs) | relief of insomnia at follow up ([4]; 2 mg hs) | relief of insomnia at follow up ([4]; 5 mg hs) | relief of insomnia at follow up ([4]; 7.5 mg hs) | relief of insomnia at follow up ([4]; 10 mg hs) | relief of onset insomnia at follow up ([5]; 2 mg hs) | relief of onset insomnia at follow up ([5]; 5 mg hs) | relief of onset insomnia at follow up ([5]; 7.5 mg hs) | relief of onset insomnia at follow up ([5]; 10 mg hs) |
| --- | --- | --- | --- | --- | --- | --- | --- | --- | --- | --- | --- | --- | --- | --- | --- | --- | --- | --- | --- | --- |
| CN1CCN2c3ncccc3Cc3ccccc3C2C1 (stereo not shown) [mirtazapine, 1,2,3,4,10,14b-hexahydro-2-methylpyrazino [2,1-a]pyrido [2,3-c]benzazepine] | relieves the insomnia and has them sleeping well | relieves the insomnia and has them sleeping well | relieves the insomnia and has them sleeping well | relieves the insomnia and has their sleeping well | relieves the onset insomnia and has them sleeping well | relieves the onset insomnia and has them sleeping well | relieves the onset insomnia and has them sleeping well | relieves the onset insomnia and has their sleeping well | relieves the insomnia and has them sleeping well | relieves the insomnia and has them sleeping well | relieves the insomnia and has them sleeping well | relieves the insomnia and has their sleeping well | relieves the insomnia and has them sleeping well | relieves the insomnia and has them sleeping well | relieves the insomnia and has them sleeping well | relieves the insomnia and has their sleeping well | relieves the onset insomnia and has them sleeping well | relieves the onset insomnia and has them sleeping well | relieves the onset insomnia and has them sleeping well | relieves the onset insomnia and has their sleeping well |
| CNCCC=C1c2ccccc2CCc2ccccc21 [nortriptyline, 1 propanamine,3-(10,11-dihydro-5H-dibenzo[a,d]cyclohepten-5-ylidene)-N-methyl-, hydrochloride] | relieves the insomnia and has their sleeping well | relieves the insomnia and has them sleeping well | relieves the insomnia and has them sleeping well | relieves the insomnia and has their sleeping well | relieves the onset insomnia and has their sleeping well | relieves the onset insomnia and has them sleeping well | relieves the onset insomnia and has them sleeping well | relieves the onset insomnia and has their sleeping well | relieves the insomnia and has their sleeping well | relieves the insomnia and has them sleeping well | relieves the insomnia and has them sleeping well | relieves the insomnia and has their sleeping well | relieves the insomnia and has their sleeping well | relieves the insomnia and has them sleeping well | relieves the insomnia and has them sleeping well | relieves the insomnia and has their sleeping well | relieves the onset insomnia and has their sleeping well | relieves the onset insomnia and has them sleeping well | relieves the onset insomnia and has them sleeping well | relieves the onset insomnia and has their sleeping well |
